Assay results: patent US20250195484A1, “CEREBLON LIGANDS AND USES THEREOF” (priority 2022, published 2025)

Assays:
androgen receptor (AR) = molecular target: T1, androgen receptor (AR) (Homo sapiens, UniProt P10275); assay: Androgen receptor degradation, western blot; type: cell-based; conditions: AR degradation potency, cell line not stated
T1 construct: endogenous in cells
T1 sequence (P10275 1-920): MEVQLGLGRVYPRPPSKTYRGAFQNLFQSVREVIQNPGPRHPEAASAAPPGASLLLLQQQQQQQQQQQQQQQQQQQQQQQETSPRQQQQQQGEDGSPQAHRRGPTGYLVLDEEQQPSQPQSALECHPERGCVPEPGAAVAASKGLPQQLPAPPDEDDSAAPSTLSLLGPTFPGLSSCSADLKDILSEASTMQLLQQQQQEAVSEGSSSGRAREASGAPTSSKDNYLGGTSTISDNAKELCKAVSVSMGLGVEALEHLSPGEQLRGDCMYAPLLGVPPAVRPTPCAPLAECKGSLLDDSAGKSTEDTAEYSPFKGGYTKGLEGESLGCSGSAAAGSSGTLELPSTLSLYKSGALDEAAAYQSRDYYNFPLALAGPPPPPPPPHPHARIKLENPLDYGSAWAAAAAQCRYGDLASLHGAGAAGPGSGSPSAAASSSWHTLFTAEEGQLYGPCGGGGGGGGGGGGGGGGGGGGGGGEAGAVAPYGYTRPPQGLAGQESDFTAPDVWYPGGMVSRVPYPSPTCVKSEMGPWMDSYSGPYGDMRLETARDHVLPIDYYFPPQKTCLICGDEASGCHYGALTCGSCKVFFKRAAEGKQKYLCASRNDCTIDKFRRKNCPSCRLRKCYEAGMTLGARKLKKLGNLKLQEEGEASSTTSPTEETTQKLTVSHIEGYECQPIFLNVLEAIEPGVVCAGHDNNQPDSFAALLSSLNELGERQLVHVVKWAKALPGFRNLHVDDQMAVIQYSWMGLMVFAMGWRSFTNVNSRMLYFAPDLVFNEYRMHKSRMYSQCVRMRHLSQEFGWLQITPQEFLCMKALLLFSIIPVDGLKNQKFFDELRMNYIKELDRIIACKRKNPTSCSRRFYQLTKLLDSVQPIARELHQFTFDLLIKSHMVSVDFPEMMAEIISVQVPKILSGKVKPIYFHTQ
Method: Western blot analysis was performed essentially as described previously. The cells treated with indicated compounds were lysed in Radioimmunoprecipitation Assay Protein Lysis and Extraction Buffer (25 mmol/L Tris.HCl, pH 7.6, 150 mmol/L NaCl, 1% Nonidet P-40, 1% sodium deoxycholate, and 0.1% sodium dodecyl sulfate) containing proteinase inhibitor cocktail (Roche Diagnostics, Mannheim, Germany). Equal amounts of total protein were electrophoresed through 10% SDS-polyacrylamide gels after determination of protein concentration by BCA assay (Fisher Scientific, Pittsburgh, PA). The separated protein bands were transferred onto PVDF membranes (GE Healthcare Life Sciences, Marlborough, MA) and blotted against different antibodies, as indicated. The blots were scanned, and the band intensities were quantified using GelQuant.NET software provided by biochemlabsolutions.com. The relative mean intensity of target proteins was expressed after normalization to the intensity of glyceraldehyde-3-phosphate dehydrogenase bands.

BRD9 = molecular target: T2, BRD9 (Homo sapiens, UniProt Q9H8M2); assay: BRD9 HiBiT assay for protein degradation (HEK293 CRISPR knock-in); type: cell-based; conditions: for Dmax: HEK293, read-out: BRD9 HEK293 HiBit Dmax; for DC50: HEK293 CRISPR knock-in cells, 6 hrs
T2 construct: endogenous in cells; host or cells: HEK293 (CRISPR HiBiT knock-in)
Method: HiBiT Assay for protein degradation:
The HiBit assay was performed using engineered HEK293 CRISPR knock-in cell utilizing the Nano-Glo HiBiT Lytic Detection System from Promega, Cat #N3040. Compounds were transferred, 25 nL DMSO or test compounds (final DMSO @ 0.1%) to intermediate plates (Corning3570) using ECHO550. Cells were seeded onto compounds at 2000 cells/25 μL/well and incubated for 6 hrs in tissue culture incubator at 37° C. and 5% CO2. The LgBiT Protein was diluted at 1:100 and the Nano-Glo® HiBiT Lytic Substrate 1:50 into an appropriate volume of room temperature using the Nano-Glo® HiBiT Lytic Buffer. At end of compound incubation time 15 ul of the detection reagent was added to each well (without LgBiT for negative control wells) using the Thermo Scientific multidrop combi. The plate was shaken for 10 mins at RT using Combi. After brief centrifugation (2000 rpm 1 mins), plate was read on Envision (Ultrasensitive luminescence model).

[1] = molecular target: GST-tagged wild-type human CRBN protein (Homo sapiens, UniProt Q96SW2); assay: biochemical
Chain of GST-tagged wild-type human CRBN protein (Q96SW2 whole entry): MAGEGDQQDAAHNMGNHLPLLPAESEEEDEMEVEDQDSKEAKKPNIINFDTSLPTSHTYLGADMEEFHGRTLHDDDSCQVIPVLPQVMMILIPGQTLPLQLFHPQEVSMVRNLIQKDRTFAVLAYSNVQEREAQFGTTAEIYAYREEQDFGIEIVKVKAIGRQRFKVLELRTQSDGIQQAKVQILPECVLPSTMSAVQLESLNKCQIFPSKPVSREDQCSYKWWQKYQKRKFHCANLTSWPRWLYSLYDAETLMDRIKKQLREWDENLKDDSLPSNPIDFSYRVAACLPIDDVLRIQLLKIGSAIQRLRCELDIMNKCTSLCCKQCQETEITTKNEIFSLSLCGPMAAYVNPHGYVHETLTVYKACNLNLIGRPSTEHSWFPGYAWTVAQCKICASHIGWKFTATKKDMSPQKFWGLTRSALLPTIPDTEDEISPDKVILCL
Method: The binding to cereblon (CRBN) was determined using the Cereblon Binding Kit (Cisbio, #64BDCRBNPEG) following the manufacturer's instruction. Briefly, serially diluted compounds were incubated with GST-tagged wild-type human CRBN protein, XL665-labelled Thalidomide and Europium Cryptate labelled GST antibody at room temperature for about 3 hours.

T2 sequence (Q9H8M2 whole entry): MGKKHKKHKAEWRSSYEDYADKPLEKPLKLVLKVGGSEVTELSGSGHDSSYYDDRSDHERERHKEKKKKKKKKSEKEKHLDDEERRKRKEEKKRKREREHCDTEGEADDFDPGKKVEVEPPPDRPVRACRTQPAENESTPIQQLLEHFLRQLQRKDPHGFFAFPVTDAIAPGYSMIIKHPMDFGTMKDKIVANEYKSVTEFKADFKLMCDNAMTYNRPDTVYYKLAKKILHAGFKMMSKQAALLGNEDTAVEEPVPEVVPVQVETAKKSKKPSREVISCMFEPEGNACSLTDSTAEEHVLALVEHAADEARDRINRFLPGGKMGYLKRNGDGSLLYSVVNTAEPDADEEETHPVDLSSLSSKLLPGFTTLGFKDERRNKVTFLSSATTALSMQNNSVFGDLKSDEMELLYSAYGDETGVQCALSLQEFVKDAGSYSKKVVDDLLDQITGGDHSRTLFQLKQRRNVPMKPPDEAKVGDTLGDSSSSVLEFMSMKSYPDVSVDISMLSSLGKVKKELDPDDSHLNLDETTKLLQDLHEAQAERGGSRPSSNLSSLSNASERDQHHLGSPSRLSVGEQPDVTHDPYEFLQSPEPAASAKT

## CN(c1ccc(C#N)c(Cl)c1)[C@H]1CC[C@H](NC(=O)c2ccc(N3CCC(CN4CCC5(CC4)COc4c5ccc5c4CN([C@H]4CCC(=O)NC4=O)C5=O)CC3)nn2)CC1 [ARD-4, N-((1r,4r)-4-((3-chloro-4-cyanophenyl)(methyl)amino)cyclohexyl)-6-(4-((7-((S)-2,6-dioxopiperidin-3-yl)-6-oxo-7,8-dihydro-2H,6H-spiro[furo[2,3-e]isoindole-3,4′-piperidin]-1′-yl)methyl)piperidin-1-yl)pyridazine-3-carboxamide]
Androgen receptor (AR)
  Dmax: > 75%

## C[C@H]1CC2(CCN(c3ccc(C(=O)N4CCC(CN5CCC6(CC5)COc5c6ccc6c5CN([C@H]5CCC(=O)NC5=O)C6=O)CC4)cc3)CC2)CN1c1ccc(C#N)c(Cl)c1 [ARD-1, 2-chloro-4-((S)-8-(4-(4-((7-((S)-2,6-dioxopiperidin-3-yl)-6-oxo-7,8-dihydro-2H,6H-spiro[furo[2,3-e]isoindole-3,4′-piperidin]-1′-yl)methyl)piperidine-1-carbonyl)phenyl)-3-methyl-2,8-diazaspiro[4.5]decan-2-yl)benzonitrile]
Androgen receptor (AR)
  Dmax: > 75%

## COc1cc(-c2cn(C)c(=O)c(C)c2C)cc(OC)c1C(=O)N1CCC2(CCC(CN3CCC4(CC3)COc3c4ccc4c3C(=O)N(C3CCC(=O)NC3=O)C4=O)CC2)CC1 (stereo not drawn) [BRD-2, 1′-((3-(2,6-dimethoxy-4-(1,4,5-trimethyl-6-oxo-1,6-dihydropyridin-3-yl)benzoyl)-3-azaspiro[5.5]undecan-9-yl)methyl)-7-(2,6-dioxopiperidin-3-yl)-7-hydro-2H,6H-spiro[furo[2,3-e]isoindole-3,4′-piperidine]-6,8-dione]
BRD9
  Dmax: > 90%
  DC50: 10 to 100 nM

## N#Cc1ccc(O[C@H]2CC[C@H](NC(=O)c3ccc(N4CCC(CN5CCC6(CC5)COc5c6ccc6c5CN([C@H]5CCC(=O)NC5=O)C6=O)CC4)nn3)CC2)cc1Cl [ARD-3, N-((1r,4r)-4-(3-chloro-4-cyanophenoxy)cyclohexyl)-6-(4-((7-((S)-2,6-dioxopiperidin-3-yl)-6-oxo-7,8-dihydro-2H,6H-spiro[furo[2,3-e]isoindole-3,4′-piperidin]-1′-yl)methyl)piperidin-1-yl)pyridazine-3-carboxamide]
Androgen receptor (AR)
  Dmax: > 75%

## C[C@@H]1N(c2ccc(C#N)c(Cl)c2)CCC12CCN(c1ccc(C(=O)N3CCC(CN4CCC5(CC4)COc4c5ccc5c4CN([C@H]4CCC(=O)NC4=O)C5=O)CC3)cc1)CC2 [ARD-2]
Androgen receptor (AR)
  Dmax: > 75%

## O=C1CCC(N2Cc3c(ccc4c3OCC43CCNCC3)C2=O)C(=O)N1 (stereo not drawn) [Compound B1, 3-(6-oxo-6,8-dihydro-2H,7H-spiro[furo[2,3-e]isoindole-3,4′-piperidin]-7-yl)piperidine-2,6-dione]
[1]
  IC50: 1000 nM

## COc1cc(-c2cn(C)c(=O)c3cnc(N4CCC4)cc23)cc(OC)c1C(=O)N1CCC2(CCC(CN3CCC4(CC3)COc3c4ccc4c3CN(C3CCC(=O)NC3=O)C4=O)CC2)CC1 (stereo not drawn) [BRD-1, 3-(1′-((3-(4-(6-(azetidin-1-yl)-2-methyl-1-oxo-1,2-dihydro-2,7-naphthyridin-4-yl)-2,6-dimethoxybenzoyl)-3-azaspiro[5.5]undecan-9-yl)methyl)-6-oxo-6,8-dihydro-2H,7H-spiro[furo[2,3-e]isoindole-3,4′-piperidin]-7-yl)piperidine-2,6-dione]
BRD9
  Dmax: > 90%
  DC50: < 10 nM
